Measured values from patent publication US5208248A, “Indazole-substituted five-membered heteroaromatic compounds” (Merck Sharpe & Dohme, Ltd., priority 1991, dated 1993).
Counter-ions that a name gives are not always drawn.

Molecular target: T1, 5-HT1 -like receptor (Oryctolagus cuniculus, UniProt P49144)
T1 construct: contraction of the saphenous vein of New Zealand White rabbits; from tissue; host or cells: saphenous vein of New Zealand White rabbits
Assay: Agonist-mediated contraction of rabbit saphenous vein
Parameters: species or system New Zealand White rabbits
Details: from plots of percentage 5-HT (1 μm) response against agonist concentration, read-out: pEC50 (-log10 EC50), agonist potency (converted)
Description: The activity of test compounds as agonists of the 5-HT1 -like receptor was measured in terms of their ability to mediate contraction of the saphenous vein of New Zealand White rabbits, using the procedure described in Arch. Pharm., 1990, 342, 111. Agonist potencies were calculated as -log10 EC50 (pEC50) values, from plots of percentage 5-HT (1 μm) response against the concentration of the agonist.

T1 sequence (P49144 whole entry): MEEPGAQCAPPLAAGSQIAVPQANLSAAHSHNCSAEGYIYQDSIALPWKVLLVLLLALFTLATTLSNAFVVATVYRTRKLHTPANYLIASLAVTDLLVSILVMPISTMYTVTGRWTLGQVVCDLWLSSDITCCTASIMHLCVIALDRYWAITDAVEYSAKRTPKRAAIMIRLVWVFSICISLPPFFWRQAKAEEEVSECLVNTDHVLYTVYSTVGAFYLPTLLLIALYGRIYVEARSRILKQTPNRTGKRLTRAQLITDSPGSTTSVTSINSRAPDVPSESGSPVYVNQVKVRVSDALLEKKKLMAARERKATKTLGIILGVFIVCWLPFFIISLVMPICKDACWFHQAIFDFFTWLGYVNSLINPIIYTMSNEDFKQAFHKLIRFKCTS

EC50: ≤ 10 µM
Compound: Cc1noc(-c2ccc3[nH]nc(CCN)c3c2)n1 [Example 2, 2-[5-(3-Methyl-1,2,4-oxadiazol-5-yl)-1H-indazol-3-yl])ethylamine hydrogen oxalate]
